# From publication PMC12072223 (CPT: Pharmacometrics & Systems Pharmacology, 2025)
# Where “and” joins values, the source holds several entries; their conditions need not be identical. Identical values can stand only once. Like-named read-outs stand apart in the source and are kept apart here.
# Experiments:
# [1] = PDA, cited from earlier work
# [2] = target: T1, OAT1 (Homo sapiens, UniProt Q4U2R8); assay: PDA uptake in OAT1-transfected HEK293 cells and RAF scaling; format: in vitro ADME
# T1 sequence (Q4U2R8 1-563): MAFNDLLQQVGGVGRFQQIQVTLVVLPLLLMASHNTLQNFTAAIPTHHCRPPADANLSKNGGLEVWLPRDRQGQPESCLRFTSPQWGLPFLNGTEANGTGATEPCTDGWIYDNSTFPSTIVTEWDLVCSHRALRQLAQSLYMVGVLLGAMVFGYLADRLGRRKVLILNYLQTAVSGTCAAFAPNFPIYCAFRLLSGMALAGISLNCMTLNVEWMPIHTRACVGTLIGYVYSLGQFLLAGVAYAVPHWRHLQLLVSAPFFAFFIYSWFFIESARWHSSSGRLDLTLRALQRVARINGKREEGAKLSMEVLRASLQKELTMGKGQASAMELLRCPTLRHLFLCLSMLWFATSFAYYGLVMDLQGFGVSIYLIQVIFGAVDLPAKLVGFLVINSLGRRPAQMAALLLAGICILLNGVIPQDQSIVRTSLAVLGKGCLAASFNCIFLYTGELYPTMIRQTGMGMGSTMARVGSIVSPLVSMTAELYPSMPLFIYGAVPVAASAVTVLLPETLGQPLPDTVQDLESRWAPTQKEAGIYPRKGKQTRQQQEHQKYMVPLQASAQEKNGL
# [3] = parameters: species or system human; conditions: PDA; in vitro-in vivo scaling
# [4] = test system: OAT1/3; assay: Effect of OAT inhibitors on PDA pharmacokinetics in clinical DDI studies; conditions: for AUC ratio / Cmax ratio: PDA; for AUC(0-t) / Cmax: both, human, in vivo
# [5] = test system: OAT1/3; conditions: PDA, cited from earlier work
# [6] = target: T2, OAT2 (Homo sapiens, UniProt Q9Y694); assay: PDA uptake in OAT2-transfected HEK293 cells and RAF scaling; format: in vitro ADME
# T2 sequence (Q9Y694 1-546 isoform Q9Y694-2): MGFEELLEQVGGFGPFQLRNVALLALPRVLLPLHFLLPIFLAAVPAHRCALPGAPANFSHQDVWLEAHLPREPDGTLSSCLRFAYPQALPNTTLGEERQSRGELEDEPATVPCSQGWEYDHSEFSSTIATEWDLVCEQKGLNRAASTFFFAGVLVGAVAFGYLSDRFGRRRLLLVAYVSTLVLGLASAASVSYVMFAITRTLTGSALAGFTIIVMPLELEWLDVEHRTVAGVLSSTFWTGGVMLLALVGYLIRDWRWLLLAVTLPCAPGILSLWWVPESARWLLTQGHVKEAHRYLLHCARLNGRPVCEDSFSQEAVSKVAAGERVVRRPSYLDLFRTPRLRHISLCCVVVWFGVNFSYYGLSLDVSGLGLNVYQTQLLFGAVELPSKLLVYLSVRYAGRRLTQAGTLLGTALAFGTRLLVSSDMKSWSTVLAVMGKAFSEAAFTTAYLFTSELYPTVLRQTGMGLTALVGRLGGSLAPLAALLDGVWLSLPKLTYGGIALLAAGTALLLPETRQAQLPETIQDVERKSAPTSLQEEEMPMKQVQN
# [7] = target: T3, OAT3 (Homo sapiens, UniProt Q8TCC7); assay: PDA uptake in OAT3-transfected HEK293 cells and RAF scaling; format: in vitro ADME
# T3 sequence (Q8TCC7 1-542): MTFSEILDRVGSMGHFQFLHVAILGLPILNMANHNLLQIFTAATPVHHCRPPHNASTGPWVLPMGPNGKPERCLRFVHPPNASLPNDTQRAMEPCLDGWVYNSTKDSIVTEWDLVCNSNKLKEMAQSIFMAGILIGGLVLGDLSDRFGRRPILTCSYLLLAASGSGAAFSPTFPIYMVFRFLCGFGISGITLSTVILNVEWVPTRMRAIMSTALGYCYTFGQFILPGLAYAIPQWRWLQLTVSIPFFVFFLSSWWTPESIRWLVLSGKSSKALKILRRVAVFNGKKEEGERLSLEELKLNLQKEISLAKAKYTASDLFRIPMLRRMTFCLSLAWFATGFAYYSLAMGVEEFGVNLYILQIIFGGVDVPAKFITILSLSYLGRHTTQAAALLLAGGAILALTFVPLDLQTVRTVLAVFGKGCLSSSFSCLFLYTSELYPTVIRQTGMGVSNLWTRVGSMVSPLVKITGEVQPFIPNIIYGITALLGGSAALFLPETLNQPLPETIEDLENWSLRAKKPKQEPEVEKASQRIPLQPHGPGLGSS
# [8] = PDA plasma and urine levels at baseline in five clinical studies; format: in vivo, human; conditions: for AUC(0-t) / Cmax / concentration at 0 min / CL renal: human; for AUC(0-t) / Cmax / concentration at 0 min: plasma; for AUC(0-t): AUC0-24h; for concentration at 0 min: predose (0 min) plasma concentration; for CL renal: CLR
# [9] = target: T3, OAT3; assay: Inhibition of OAT3-mediated uptake in transfected HEK293 cells; format: in vitro ADME; conditions: from in vitro IC50 values
# [10] = physiological scalars and relative activity factors
# [11] = presence/absence of probenecid 1000 mg BID, Study 1
# [12] = presence/absence of ritlecitinib 200 mg QD, Study 2
# [13] = Shen 2019 Study 1, presence/absence of probenecid
# [14] = Shen 2019 Study 1, probenecid 1000 mg single oral dose
# [15] = Shen 2019 Study 2, presence/absence of probenecid
# [16] = Shen 2019 Study 2, probenecid 1000 mg single oral dose
# [17] = Willemin 2021, presence/absence of probenecid
# [18] = Willemin 2021, probenecid 500 mg multiple oral doses
# [19] = both, PDA plasma, Study 1 baseline (no inhibitor), n=12
# [20] = both, PDA plasma, Study 2 baseline, n=12
# [21] = both, PDA plasma, Study 3 baseline, n=12
# [22] = male, PDA plasma, Study 5 baseline, males, n=23
structure (smiles),measurement,setting,value
"Cc1ncc(CO)c(C(=O)O)c1O [PDA, Pyridoxic acid]","fu,plasma",[1],0.08–0.1
same,"fu,plasma",[1]; ref 13 (supplement ref 7),0.092
same,ft (fraction transported) OAT1,[2]; PDA renal secretion,< 0.1
same,contribution of OAT1-specific active secretion to total CLR,"[2]; PDA, in vitro-in vivo scaling",7%
same,"active uptake clearance via OAT1, scaled",[2]; [10],3.31 mL/min/kg
same,contribution of glomerular filtration to total CLR,[3],5% and ~ 5%
same,AUC ratio,[4]; [11],3.2
same,Cmax ratio,[4]; [11],3
same,AUC ratio,[4]; [12],1.1
same,Cmax ratio,[4]; [12],1.1
same,AUC ratio,"[4]; presence/absence of tafamidis 61 mg, Study 3",1.2
same,AUC(0-t),[4]; 200 mg,72.8 ± 22.6 ng·h/mL
same,Cmax,[4]; 200 mg,3.9 ± 1 ng/mL
same,AUC(0-t),[4]; 1000 mg,235 ± 76 ng·h/mL
same,Cmax,[4]; 1000 mg,11.9 ± 3.4 ng/mL
same,inter-individual variability in predose plasma concentrations,[5]; Indian population,33 fold and ~ 33 fold
same,AUC0-24h,"[5]; Shen 2019 Study 1, baseline",46 ± 53.7 ng·h/mL
same,CLR,"[5]; Shen 2019 Study 1, baseline",226.7 ± 268.3 mL/min
same,Cmax,"[5]; Shen 2019 Study 1, baseline",3.3 ± 4.6 ng/mL
same,AUC ratio,[5]; [13],3.1
same,CLR ratio,[5]; [13],0.37
same,Cmax ratio,[5]; [13],3.1
same,AUC0-24h,[5]; [14],116 ± 151 ng·h/mL
same,CLR,[5]; [14],65 ± 55 mL/min
same,Cmax,[5]; [14],9.3 ± 11.5 ng/mL
same,AUC0-24h,"[5]; Shen 2019 Study 2, baseline",57.9 ± 75.7 ng·h/mL
same,CLR,"[5]; Shen 2019 Study 2, baseline",221.7 ± 221.7 mL/min
same,Cmax,"[5]; Shen 2019 Study 2, baseline",3.6 ± 4.5 ng/mL
same,AUC ratio,[5]; [15],3.2
same,CLR ratio,[5]; [15],0.4
same,Cmax ratio,[5]; [15],3.4
same,AUC0-24h,[5]; [16],152 ± 174 ng·h/mL
same,CLR,[5]; [16],67.6 ± 41.2 mL/min
same,Cmax,[5]; [16],10.1 ± 10.2 ng/mL
same,AUC0-24h,"[5]; Willemin 2021, baseline",71.8 ± 21.3 ng·h/mL
same,CLR,"[5]; Willemin 2021, baseline",328.3 ± 203.3 mL/min
same,Cmax,"[5]; Willemin 2021, baseline",3.6 ± 0.8 ng/mL
same,AUC ratio,[5]; [17],3.7
same,CLR ratio,[5]; [17],0.17
same,Cmax ratio,[5]; [17],3.7
same,AUC0-24h,[5]; [18],271 ± 93 ng·h/mL
same,CLR,[5]; [18],53.3 ± 25 mL/min
same,Cmax,[5]; [18],13.7 ± 4.1 ng/mL
same,ft (fraction transported) OAT2,[6]; PDA renal secretion,< 0.1
same,contribution of OAT2-specific active secretion to total CLR,"[6]; PDA, in vitro-in vivo scaling",6%
same,"active uptake clearance via OAT2, scaled",[6]; [10],0.35 mL/min/kg
same,ft (fraction transported) OAT3,[7]; PDA renal secretion,0.82
same,"active uptake clearance via OAT3, scaled",[7]; [10],7.55 mL/min/kg
same,intra-individual variability in plasma concentration across 0-24 h,[8]; PDA,16 % CV
same,amount excreted unchanged in urine lower in White males than Japanese males,"[8]; PDA, Studies 4 and 5",35%
same,variability in predose plasma concentrations and AUC0-24h,"[8]; PDA, across the five studies",< 6 fold
same,inter-individual (overall) variability in plasma concentration,"[8]; PDA, all five studies, n = 71",~ 40% and < 40%
same,overall variability in AUC0-24h,"[8]; PDA, five studies",38%
same,overall variability in predose plasma concentration,"[8]; PDA, five studies",44%
same,AUC0-24h / baseline plasma level higher in White males than Japanese males,"[8]; PDA, p < 0.05",38%
same,CLR lower in White males than Japanese males,"[8]; PDA, p < 0.05",~ 54%
same,amount excreted in urine higher in Japanese males than White males,"[8]; PDA, p < 0.05",1.5 fold
same,renal clearance higher in Japanese males than White males,"[8]; PDA, p < 0.05",2.2 fold and ~ 2.2 fold
same,average AUC0-24h and Cmax lower in Hispanic/Latino compared to Whites,"[8]; PDA, p > 0.05",~ 30%
same,AUC0-24h higher in Study 5 compared to Study 4,"[8]; PDA, ~70% White males vs all Japanese males",35%
same,AUC(0-t),[8]; [19],86.7 ± 47.4 ng·h/mL
same,AUC(0-t),[8]; [20],70.5 ± 24.3 ng·h/mL
same,AUC(0-t),[8]; [21],64.2 ± 21.2 ng·h/mL
same,Cmax,[8]; [19],4.6 ± 2.5 ng/mL
same,Cmax,[8]; [20],3.8 ± 1.3 ng/mL
same,Cmax,[8]; [21],3.5 ± 1.1 ng/mL
same,concentration at 0 min,"[8]; both, mean, PDA, across the five studies",3.3 ng/mL
same,concentration at 0 min,"[8]; both, range, PDA, across the five studies",1.6 to 9.2 ng/mL
same,AUC(0-t),"[8]; male, PDA plasma baseline, males only, Japanese (13)",56.5 ± 15.2 ng·h/mL
same,AUC(0-t),"[8]; male, PDA plasma baseline, males only, White (37)",78.2 ± 28.2 ng·h/mL
same,AUC(0-t),[8]; [22],74.6 ± 15.7 ng·h/mL
same,Cmax,[8]; [22],4.6 ± 1.9 ng/mL
same,CL renal,"[8]; male, urine and plasma, PDA, Study 5 baseline",230 ± 54.2 mL/min
same,CL renal,"[8]; male, urine, PDA, Japanese males (13)",546 ± 122 mL/min
same,CL renal,"[8]; male, urine, PDA, White males (16)",250 ± 48.2 mL/min
CCCN(CCC)S(=O)(=O)c1ccc(C(=O)O)cc1 [Probenecid],potency as inhibitor for OAT3 versus OAT1,[9],5 fold
C=CC(=O)N1C[C@H](Nc2ncnc3[nH]ccc23)CC[C@@H]1C [Ritlecitinib],change in PDA plasma concentration in the clinic,[4]; ritlecitinib,no‐change
same,change in the AUC0-24h and Cmax of PDA,"[4]; ritlecitinib administration, Study 2",no significant change
